This note sets out measurements from patent publication US10202371B2, “Oxazolidin-2-one-pyrimidine derivatives and the use thereof as phosphatidylinositol-3-kinase inhibitors” (Novartis AG, priority 2012, dated 2019).

One assay concerns the target human mTOR (GST-mTOR) (Homo sapiens (Human), UniProt P42345). The assay can be described thus: Binding assay mTor (Lanthascreen kinase binding assay). The note with it: Tracer-314. The source says: Catalytically active human PI3Kα, PI3Kβ, PI3Kδ, and mTOR were cloned, expressed and purtified as described (Maira S M, Stauffer F, Brueggen J, Furet P, Schnell C, Fritsch C, Brachmann S, Chène P, de Pover A, Schoemaker K, Fabbro D, Gabriel D, Simonen M, Murphy L, Finan P, Sellers W, Garcia-Echeverria C (2008), Mol Cancer Ther. 7:1851-63 and Maira S M, Pecchi S, Brueggen J, Huh K, Schnell C, Fritsch C, Nagel T, Wiesmann M, Brachmann S, Dorsch M, Chène P, Schoemaker K, De Pover A, Menezes D, Fabbro D, Sellers W, Garcia-Echeverria C, Voliva CF (2011), Mol. Cancer Ther. accepted).
TR-FRET assays for protein kinases uses a long-lifetime lanthanide Terbium or Europium chelates as the donor species which overcome interference by compound autofluorescence or light scatter from precipitated compounds, by introducing a delay after excitation by a flashlamp excitation source. Results are often expressed as a ratio of the intensities of the acceptor and donor fluorophores. The ratiometric nature of such a value corrects for differences in assay volumes between wells, as well as corrects for quenching effects due to colored compounds.
Binding Assays are based on the binding and displacement of an Alexa Fluor® 647-labeled, ATP-competitive kinase inhibitors to the kinase of interest. Invitrogen's “Kinase Tracers” have been developed to address a wide range of kinase targets and are based on ATP-competitive kinase inhibitors, making them suitable for detection of any compounds that bind to the ATP site or to an allosteric site altering the conformation of the ATP site. Inhibitors that bind the ATP site include both Type I kinase inhibitors, which bind solely to the ATP site, and Type II inhibitors (e.g., Gleevec®/Imatinib, Sorafenib, BIRB-796), which bind to both the ATP site and a hydrophobic site exposed in the DFG-out (non-active) conformation. […] The sole exception was a substrate-competitive compound, and thus not a true allosteric inhibitor.
In contrast to most fluorescence-based kinase activity assays, LanthaScreen® Eu^3+ Kinase Binding Assays can be read continuously, which facilitates evaluation of compounds with slow binding kinetics. Also, unlike most activity assays, binding assays can be performed using either active or non-activated kinase preparations, which enables characterization of compounds that bind preferentially to non-activated kinases, such as Gleevec®/imatinib and some allosteric inhibitors.
In the Lanthascreen™ kinase binding assay, the donor (Eu^3+-anti-GST antibody) is excited at 340 nm and will transfer its energy to the acceptor (Alexa Fluor® 647-labeled ATP-competitive kinase inhibitor=Tracer-314). The emission from the Tracer-314 (Alexa Fluor® 647 inhibitor) can be monitored with a filter centered at 665 nm because it is located between the emission peaks of the donor, which is measured at 615/620 nm. The binding of both, the Tracer-314 and Eu^3+-anti-GST antibody, to the kinase results in a high degree of FRET from the Eu^3+-donor fluorophore to the Alexa-Fluor® 647-acceptor fluorophore on the Tracer-314. Binding of an inhibitor to the kinase competes for binding with the tracer, resulting in a loss of FRET.
50 nL of compound dilutions were dispensed onto white 384-well small volume polystyrene plate as described in section 2.2. Then 5 μL of GST-mTOR and Europium-anti-GST antibody followed by 5 μL of tracer-314 (final assay volume 10 μL) are incubated at RT. The standard reaction buffer for the Lanthascreen™ kinase binding assay contained 50 mM HEPES pH 7.5, 5 mM MgCl2, 1 mM EGTA, 0.01% Pluronic F-127. Plates are read 60 mins later in a Synergy2 reader using an integration time of 0.2 microseconds and a delay of 0.1 microseconds.
To calculate the emission ratio, the signal emitted at 665 nm from the acceptor (Alexa Fluor® 647-labeled Tracer-314) is divided by the signal emitted at 620 nm from the donor (Eu^3+ anti-GST antibody) […]

For another assay, the target named is human PI3Kδ (Homo sapiens (Human), UniProt O00329). Briefly: Biochemical assay PI3Kdelta (Adapta TR-FRET). The note with it: read-out: PI3Kd/IC50. The text has this:
Catalytically active human PI3Kα, PI3Kβ, PI3Kδ, and mTOR were cloned, expressed and purtified as described ([…], Stauffer F, Brueggen J, Furet […], de Pover A, Schoemaker K, Fabbro D, Gabriel D, Simonen M, Murphy […], Garcia-Echeverria C (2008), Mol Cancer Ther. 7:1851-63 and […], Huh […], Schoemaker K, De Pover […], Garcia-Echeverria C, Voliva CF (2011), Mol. Cancer Ther. accepted). The TR-FRET AdaptaTM Universal Kinase Assay Kit was purchased from Invitrogen Corporation (Carlsbad/CA, USA) (Cat. No. PV5099). The kit contains the following reagents: Adapta Eu-anti-ADP Antibody (Europium labeled anti-ADP antibody in HEPES buffered saline, Cat. No. PV5097), Alexa Fluor® 647-labeled ADP tracer (Alexa Fluor® 647-labeled ADP tracer in HEPES buffered saline, Cat. No. PV5098), proprietary TR-FRET dilution buffer pH 7.5 (Cat. No. PV3574). PIK3CD substrate Phosphatidylinositol was obtained from Invitrogen (vesicules consisting of 2 mM PI in 50 mM HEPES pH7.5; Cat. No. PV5371). […] TR-FRET assays for protein kinases use a long-lifetime lanthanide Terbium or Europium chelates as the donor species which overcome interference from compound autofluorescence or light scatter from precipitated compounds, by introducing a delay after excitation by a flashlamp excitation source. Results are often expressed as a ratio of the intensities of the acceptor and donor fluorophores. The ratiometric nature of such a value corrects for differences in assay volumes between wells, as well as corrects for quenching effects due to colored compounds. The AdaptaTM assay can be divided into two phases: a kinase reaction phase and an ADP detection phase. In the kinase reaction phase, all kinase reaction components are added to the well and the reaction is allowed to incubate for a set period of time specific for each kinase. After the reaction, a detection solution of Eu-labeled anti-ADP antibody, Alexa Fluor® 647-labeled ADP tracer, and EDTA (to stop the kinase reaction) are added to the assay well. ADP formed by the kinase reaction will displace the Alexa Fluor® 647-labeled ADP tracer from the antibody, resulting in a decrease in TR-FRET signal. In the presence of an inhibitor, the amount of ADP formed by the kinase reaction is reduced, and the resulting intact antibody-tracer interaction maintains a high TR-FRET signal. In the AdaptaTM assay, the donor (Europium-anti-ADP antibody) is excited at 340 nm and will transfer its energy to the acceptor (Alexa Fluor® 647-labeled ADP tracer). The emission from the Alexa Fluor® 647 can be monitored with a filter centered at 665 nm because it is located between the emission peaks of the donor, which is measured at 615/620 nm. […] Reactions were stopped with 5 μL of a mixture of EDTA containing the Eu-labeled anti-ADP antibody and the Alexa Fluor® 647-labeled ADP tracer in TR-FRET dilution buffer (proprietary to IVG). […] Data are analyzed using Excel fit software or Graphpad Prism. EC50 values were derived by fitting a sigmoidal dose-response curve to a plot of assay readout over inhibitor concentration. All fits were performed with the program XLfit4 (ID Business Solutions, Guildford, UK). […] All fits were performed with the program XLfit4 (ID Business Solutions, Guildford, UK).

Structures are written as SMILES.

Chain of human PI3Kδ (O00329 2-1044): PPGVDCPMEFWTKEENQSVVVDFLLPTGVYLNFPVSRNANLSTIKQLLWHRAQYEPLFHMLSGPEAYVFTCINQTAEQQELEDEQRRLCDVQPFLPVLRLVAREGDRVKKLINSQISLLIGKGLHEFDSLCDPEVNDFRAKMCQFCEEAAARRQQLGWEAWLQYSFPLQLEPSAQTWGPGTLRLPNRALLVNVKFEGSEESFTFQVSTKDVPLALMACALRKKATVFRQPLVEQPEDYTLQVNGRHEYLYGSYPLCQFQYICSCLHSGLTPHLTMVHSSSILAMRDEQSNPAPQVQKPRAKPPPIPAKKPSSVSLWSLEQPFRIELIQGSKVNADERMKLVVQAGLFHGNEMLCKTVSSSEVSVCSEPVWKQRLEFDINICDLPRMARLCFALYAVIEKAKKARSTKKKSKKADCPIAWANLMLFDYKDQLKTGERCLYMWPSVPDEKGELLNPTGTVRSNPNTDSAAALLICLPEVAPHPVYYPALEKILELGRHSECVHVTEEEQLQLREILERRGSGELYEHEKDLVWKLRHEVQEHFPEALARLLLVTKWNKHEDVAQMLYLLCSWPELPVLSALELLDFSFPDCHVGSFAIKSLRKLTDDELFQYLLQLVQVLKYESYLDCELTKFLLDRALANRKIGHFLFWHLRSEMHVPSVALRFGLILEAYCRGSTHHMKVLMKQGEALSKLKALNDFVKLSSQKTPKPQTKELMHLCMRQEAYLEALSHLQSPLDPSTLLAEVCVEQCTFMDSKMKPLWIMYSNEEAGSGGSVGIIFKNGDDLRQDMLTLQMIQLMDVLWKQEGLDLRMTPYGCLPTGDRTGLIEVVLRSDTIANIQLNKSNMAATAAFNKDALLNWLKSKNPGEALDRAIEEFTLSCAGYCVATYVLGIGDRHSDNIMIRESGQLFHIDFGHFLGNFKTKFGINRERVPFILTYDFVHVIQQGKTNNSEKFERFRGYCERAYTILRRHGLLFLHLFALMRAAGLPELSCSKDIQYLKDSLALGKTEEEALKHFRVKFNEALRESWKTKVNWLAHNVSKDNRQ

For the compound `CC[C@H]1[C@H](c2ccc(OC)cc2)OC(=O)N1c1cc(-c2cnc(N)nc2C(F)(F)F)nc(N2CCOCC2)n1` (relative stereo) [Example 2, (4S*,5S*)-3-(2′-amino-2-morpholino-4′-(trifluoromethyl)-[4,5′-bipyrimidin]-6-yl)-4-ethyl-5-(4-methoxyphenyl)oxazolidin-2-one], on human mTOR (GST-mTOR), the IC50 turned out to be 2800 nM.

As to `C[C@H]1[C@H](c2nccs2)OC(=O)N1c1cc(-c2cnc(N)nc2C(F)(F)F)nc(N2CCOCC2)n1` [Example 1, (4S,5R)-3-(2′-Amino-2-morpholin-4-yl-4′-trifluoromethyl-[4,5′]bipyrimidinyl-6-yl)-4-methyl-5-thiazol-2-yl-oxazolidin-2-one], on human mTOR (GST-mTOR), the IC50 was found to be 251 nM. For `COc1ccc([C@@H]2OC(=O)N(c3cc(-c4cnc(N)nc4C(F)(F)F)nc(N4CCOCC4)n3)[C@H]2CO)cc1` [Example 3, (4S,5S)-3-(2′-Amino-2-morpholino-4′-(trifluoromethyl)-[4,5′-bipyrimidin]-6-yl)-4-(hydroxymethyl)-5-(4-methoxyphenyl)oxazolidin-2-one], the IC50 was 4 nM at human PI3Kδ and 850 nM on human mTOR (GST-mTOR). As to `C[C@H]1[C@H](c2ccccc2)OC(=O)N1c1cc(-c2cnc(N)nc2C(F)(F)F)nc(N2CCOCC2)n1` [Example 5], the IC50 on human PI3Kδ came to 147 nM; at human mTOR (GST-mTOR), 2250 nM. Take `CC[C@H]1[C@H](c2nccs2)OC(=O)N1c1cc(-c2cnc(N)nc2C(F)(F)F)nc(N2CCOCC2)n1` [Example 7]: the IC50 on human PI3Kδ was 41 nM; at human mTOR (GST-mTOR), 2700 nM. Take `CCC1C(c2cccnc2)OC(=O)N1c1cc(-c2cnc(N)nc2C(F)(F)F)nc(N2CCOCC2)n1` (stereo not drawn) [Example 8]: the IC50 on human mTOR (GST-mTOR) stood at 960 nM. With `CC1C(c2cccnc2)OC(=O)N1c1cc(-c2cnc(N)nc2C(F)(F)F)nc(N2CCOCC2)n1` (stereo not drawn) [Example 9], the IC50 at human PI3Kδ is 10 nM.

Regarding `Nc1ncc(-c2cc(N3C(=O)O[C@@H](c4ccccc4)[C@@H]3CO)nc(N3CCOCC3)n2)c(C(F)(F)F)n1` [Example 10], the IC50 at human PI3Kδ was 31 nM; on human mTOR (GST-mTOR), 1010 nM.

`C[C@H]1[C@@H](c2nccs2)OC(=O)N1c1cc(-c2cnc(N)nc2C(F)(F)F)nc(N2CCOCC2)n1` [Example 11]: the IC50 at human mTOR (GST-mTOR) turned out to be 870 nM.

Take `COCCOc1ccc([C@@H]2OC(=O)N(c3cc(-c4cnc(N)nc4C(F)(F)F)nc(N4CCOCC4)n3)[C@H]2CO)cc1` [Example 12]: the IC50 at human PI3Kδ was 4 nM; on human mTOR (GST-mTOR), 750 nM. For `Nc1ncc(-c2cc(N3C(=O)O[C@@H](c4ccc(OCCO)cc4)[C@@H]3CO)nc(N3CCOCC3)n2)c(C(F)(F)F)n1` [Example 13], in that order: 3 nM and 230 nM. Regarding `Nc1ncc(-c2cc(N3C(=O)O[C@@H](c4ccc(OCCCO)cc4)[C@@H]3CO)nc(N3CCOCC3)n2)c(C(F)(F)F)n1` [Example 14], the IC50 on human mTOR (GST-mTOR) was 490 nM.
